The assay has as its target rhSYK (Homo sapiens, UniProt P43405).
Where [1] appears, read: read-out: rhSYK Activity, class symbol, where two forms are listed, one symbol per form.
Where [2] appears, read: read-out: rhSYK Activity, Table 119, two symbols in a cell = one per listed form.
[3] abbreviates: read-out: rhSYK activity, class symbol given.

Each structure is given as a SMILES string. Where two headings read alike, the source gives them in different places.

Take `Cc1cc(Nc2nccc(C(F)(F)F)n2)cc(-c2cnc(C(C)(O)c3cccc(C(=O)O)c3)s2)c1` (single isomer, unassigned) [Example 4A-54]: the IC50 under setting [1] was less than 0.1 µM. `Cc1cc(Nc2nccc(C(F)(F)F)n2)cc(-c2cnc(C(C)(O)c3cccc(C(=O)O)c3)s2)c1` (single isomer, unassigned) [Example 4A-55]: the IC50 under setting [1] is less than 0.1 µM.

In the case of `Cc1cc(Nc2nccc(C(F)(F)F)n2)cc(-c2cnc(C(C)(O)c3ccc(CC(=O)O)cc3)s2)c1` (single isomer, unassigned) [Example 4A-59], under setting [1], the IC50 is less than 0.1 µM. On the same count and under the same terms, the same measure for `Cc1cc(Nc2nccc(C(F)(F)F)n2)cc(-c2cnc(C(C)(O)c3ccc(CC(=O)O)cc3)s2)c1` (single isomer, unassigned) [Example 4A-60]: less than 0.1 µM; for `COc1cc(C(C)(O)c2ncc(-c3cc(C)cc(Nc4nccc(C(F)(F)F)n4)c3)s2)ccc1C(=O)O` (single isomer, unassigned) [Example 4A-65]: less than 0.1 µM; for `COc1cc(C(C)(O)c2ncc(-c3cc(C)cc(Nc4nccc(C(F)(F)F)n4)c3)s2)ccc1C(=O)O` (single isomer, unassigned) [Example 4A-66]: less than 0.1 µM. Same read-out and setting: for `Cc1cc(Nc2nccc(C(F)(F)F)n2)cc(-c2cnc(C(C)(O)c3ccc(Br)nc3)s2)c1` (single isomer, unassigned) [Example 4A-68] the value was less than 0.1 µM; for `Cc1cc(Nc2nccc(C(F)(F)F)n2)cc(-c2cnc(C(C)(O)c3ccc(Br)nc3)s2)c1` (single isomer, unassigned) [Example 4A-69], less than 0.1 µM. On the same count and under the same terms, for `Cc1cc(Nc2nccc(C(F)(F)F)n2)cc(-c2cnc(C(O)(CO)C(F)(F)F)s2)c1` (single isomer, unassigned) [Example 6-8] the value was less than 0.1 µM; for `Cc1cc(Nc2nccc(C(F)(F)F)n2)cc(-c2cnc(C(O)(CO)C(F)(F)F)s2)c1` (single isomer, unassigned) [Example 6-9], less than 0.1 µM. With `Cc1cc(Nc2nccc(C(F)(F)F)n2)cc(-c2cnc(C(C)(O)c3ccc(C(N)=O)cc3)s2)c1` (single isomer, unassigned) [Example 117-21], the IC50 (read-out: rhSYK Activity, Table 117) was less than 0.1 µM. As to `Cc1cc(Nc2nccc(C(F)(F)F)n2)cc(-c2cnc(C3(O)CCC(C(N)=O)C3)s2)c1` (single isomer, unassigned) [Example 119-1], under setting [2], the IC50 was less than 0.1 µM. Same read-out and setting: the same measure for `Cc1cc(Nc2nccc(C(F)(F)F)n2)cc(-c2cnc(C3(O)CCC(C(N)=O)C3)s2)c1` (single isomer, unassigned) [Example 119-3]: less than 0.1 µM; for `Cc1cc(Nc2nccc(C(F)(F)F)n2)cc(-c2cnc(C3(O)CCC(C(N)=O)C3)s2)c1` (single isomer, unassigned) [Example 119-4]: less than 0.1 µM; for `Cc1cc(Nc2nccc(C)n2)cc(-c2cnc(C3(O)CCC(C(N)=O)C(C)C3)s2)c1` (single isomer, unassigned) [Example 119-6]: less than 0.1 µM.

As to `Cc1cc(Nc2nccc(C(F)(F)F)n2)cc(-c2cnc(C3(O)CCC(C(N)=O)C(C)C3)s2)c1` (single isomer, unassigned) [Example 119-112], the IC50 under setting [2] is less than 0.1 µM. For `O=C(c1ccccc1)N1CCC(O)(c2ncc(-c3cccc(Nc4nccc(C(F)(F)F)n4)c3)s2)CC1` [4D-6], the IC50 under setting [1] was less than 0.1 µM. For the compound `Cc1cc(Nc2nccc(C(F)(F)F)n2)cc(-c2cnc(C3(O)CCC(O)CC3)s2)c1` (stereo not drawn) [8(2), trans-1-[5-(3-methyl-5-{[4-(trifluoromethyl)pyrimidin-2-yl]amino}phenyl)-1,3-thiazol-2-yl]-cyclohexane-1,4-diol], the IC50 under setting [3] was less than 0.1 µM. Same read-out and setting: for `Cc1cc(Nc2nccc(C(F)(F)F)n2)cc(-c2cnc([C@]3(O)CC[C@@](C)(O)CC3)s2)c1` [9(2), cis-1-methyl-4-[5-(3-methyl-5-{[4-(trifluoromethyl)pyrimidin-2-yl]amino}phenyl)-1,3-thiazol-2-yl]cyclohexane-1,4-diol] the value was less than 0.1 µM.

The record behind these values is patent US8551984B2, “Aminopyrimidines as SYK inhibitors” (Merck Sharp & Dohme Corp., priority 2009, dated 2013).
